In patent US11213522B2, “Autoimmune-induced glutamatergic receptor dysfunction methods and treatments” (SARAH HERZOG MEMORIAL HOSPITAL EZRAT NASHIM ASSOCIATION, priority 2013, dated 2022):

Experiments:
[1] = system: patient positive for anti-NR1 NMDAR antibodies; assay: Quality of Life Scale (QLS), D-serine clinical trial; assay type: in vivo, human; conditions: for QLS Symptoms/side-effects: week 0 score 15.63; for QLS Motivation/energy: week 0 score 42.86; for QLS Psychosocial: week 0 score 60
Excerpt: Out of the seventeen patients that entered the study, the serum of one patient was strongly positive at both serum sample dilutions for the presence of both IgG and IgM classes of anti-NR1 NMDAR antibodies. The patient was a single person having a diagnosis of schizophrenia according to DSM-IV-R criteria (American Psychiatric Association, 2000 Diagnostic and Statistical Manual of Mental Disorders-(DSM-IV-TR), 4th edition. American Psychiatric Association Washington D.C. (Text Revision)). There was no history of mental disorder in the patient's family. The patient had completed post-high school studies and had worked as a secretary. After a period of continuous headaches, for which no organic basis had been found, they had abruptly developed an acute psychosis characterized by grandiose and paranoid delusions, mystical thinking, […] affect and agitation, They had been hospitalized in a psychiatric hospital and underwent treatment with antipsychotic drugs and electroconvulsive therapy with only partial response. The patient had never returned to their previous functional and except for short attempts at living in the community, has been hospitalized ever since. They have been refractory to treatment with various classes of antipsychotic drugs, was not diagnosed with any medical or neurological disorder and was maintained on sulpiride 50 mg/day, citalopram 40 mg/day, lorazepam 1 mg/day and promethazine 50 mg/day. […] DSR is a naturally occurring amino acid that acts in vivo as an obligatory co-agonist at the glycine modulatory site associated with NMDAR. […] Both acute and chronic administration of 1-2 g DSR in humans is known to result in ≥100 times increases in DSR serum levels (Kantrowitz et al., 2010, Schizophr Res121:125-30; Heresco-Levy et al., 2005, Biol Psychiatry 57:577-85). The trial consisted of two periods, starting with a 2 week lead-in/stabilization period (-2-0) following which the patient was entered in the second period of the study which consisted of a 6 week (0-6), open-label, fixed dose therapy phase. During this phase, the patient received adjuvant treatment with DSR, whose dose was increased from 1500 mg/day (week 1) to 2000 mg/day (weeks 2 and 3) to 3000 mg/day (weeks 4 and 5) and to 4000 mg/day (week 6). The doses of the ongoing medication received by the patient remained fixed throughout the study and no changes in medication were performed. The assessment procedures used in the study included clinical and neurocognitive examinations. Motor and psychiatric symptoms as well as side-effects were rated biweekly throughout the study. The following instruments were used: 1) Positive and Negative Syndrome Scale (PANSS) (Kay et al., 1987, Positive and Negative Syndrome Scale (PANSS) rating manual. San Rafael California: Social and Behavioral Sciences Documents); 2) Quality of Life Scale (QLS) (Wilkinson et al., 2000, Self-report quality of life measure for people with schizophrenia: the SQLS. Br J Psychiatry 177:42-6); 3) Abnormal Involuntary Movement Scale (AIMS) (Guy, 1976, ECDEU Assessment Manual for Psychopharmacology-Revised. Rockville, Md.: US Dept. of Health, Education and Welfare); 4) Simpson Angus Scale for Extrapyramidal Symptoms (SAS) (Simpson and Angus, 1970, Acta Psychiatr Scand Suppl. 212:11-9); and 5) Udvalg for […] Undersogelser (UKU) Side Effect Rating Scale (Lingjaerde, et al., 1987 Acta Psychiatr Scand Suppl 334:1-100). In conjunction with UKU ratings, patient's vital signs and body weight were monitored throughout the study.

[2] = system: patient positive for anti-NR1 NMDAR antibodies; assay: Abnormal Involuntary Movement Scale (AIMS), D-serine clinical trial; assay type: in vivo, human; conditions: for AIMS: week 0 score 1
Excerpt: Out of the seventeen patients that entered the study, the serum of one patient was strongly positive at both serum sample dilutions for the presence of both IgG and IgM classes of anti-NR1 NMDAR antibodies. The patient was a single person having a diagnosis of schizophrenia according to DSM-IV-R criteria (American Psychiatric Association, 2000 Diagnostic and Statistical Manual of Mental Disorders-(DSM-IV-TR), 4th edition. American Psychiatric Association Washington D.C. (Text Revision)). There was no history of mental disorder in the patient's family. The patient had completed post-high school studies and had worked as a secretary. After a period of continuous headaches, for which no organic basis had been found, they had abruptly developed an acute psychosis characterized by grandiose and paranoid delusions, mystical thinking, […] affect and agitation, They had been hospitalized in a psychiatric hospital and underwent treatment with antipsychotic drugs and electroconvulsive therapy with only partial response. The patient had never returned to their previous functional and except for short attempts at living in the community, has been hospitalized ever since. They have been refractory to treatment with various classes of antipsychotic drugs, was not diagnosed with any medical or neurological disorder and was maintained on sulpiride 50 mg/day, citalopram 40 mg/day, lorazepam 1 mg/day and promethazine 50 mg/day. […] DSR is a naturally occurring amino acid that acts in vivo as an obligatory co-agonist at the glycine modulatory site associated with NMDAR. […] Both acute and chronic administration of 1-2 g DSR in humans is known to result in ≥100 times increases in DSR serum levels (Kantrowitz et al., 2010, Schizophr Res121:125-30; Heresco-Levy et al., 2005, Biol Psychiatry 57:577-85). The trial consisted of two periods, starting with a 2 week lead-in/stabilization period (-2-0) following which the patient was entered in the second period of the study which consisted of a 6 week (0-6), open-label, fixed dose therapy phase. During this phase, the patient received adjuvant treatment with DSR, whose dose was increased from 1500 mg/day (week 1) to 2000 mg/day (weeks 2 and 3) to 3000 mg/day (weeks 4 and 5) and to 4000 mg/day (week 6). The doses of the ongoing medication received by the patient remained fixed throughout the study and no changes in medication were performed. The assessment procedures used in the study included clinical and neurocognitive examinations. Motor and psychiatric symptoms as well as side-effects were rated biweekly throughout the study. […] In conjunction with UKU ratings, patient's vital signs and body weight were monitored throughout the study.

[3] = system: patient positive for anti-NR1 NMDAR antibodies; assay: Electroencephalogram (EEG) pre- and post-DSR administration; assay type: in vivo, human
Procedure: The trial consisted of two periods, starting with a 2 week lead-in/stabilization period (−2-0) following which the patient was entered in the second period of the study which consisted of a 6 week (0-6), open-label, fixed dose therapy phase. During this phase, the patient received adjuvant treatment with DSR, whose dose was increased from 1500 mg/day (week 1) to 2000 mg/day (weeks 2 and 3) to 3000 mg/day (weeks 4 and 5) and to 4000 mg/day (week 6). The doses of the ongoing medication received by the patient remained fixed throughout the study and no changes in medication were performed.
The patient underwent prior to entering the study and at study weeks 3 and 6 a medical work-up including complete medical history, and routine clinical blood work, including blood count+differential, lipids, and glucose levels, kidney, thyroid, and liver function parameters, urinalysis, and blood pressure measurements. Abdominal ultrasound was performed prior to study entry and electroencephalogram (EEG) and brain magnetic resonance imaging (MR1) were obtained pre- and post-DSR administration.

[4] = system: Rodent neuron cell cultures treated with anti-NMDAR antibodies; assay: Example 3: NMDAR localization in neuron cultures treated with anti-NMDAR antibodies; assay type: cell-based; conditions: D-Serine 50-200 uM; histological measurements
Procedure: Rodent neuron cell cultures are treated with anti-NMDAR antibodies as described in Hughes E G et al., J Neurosci 2012 30(17):5866-75. […] The determination of receptors localization and other relevant measures is based on histological measurements.
Immunohistochemical methods will be applied to document (a) localization of NMDAR and NR1 and NR2 subunits; (b) loss of oligodendrocytes; (c) changes in astrocytes (S100beta) and microglia (cd11b), (d) expression of neurotrophic factors: brain derived neurotrophic factor (BDNF), nerve growth factor (NGF) and ciliary neurotrophic factor (CNTF); (e) markers of neurogenesis—doublecortin (17) and apoptosis—caspase3 (9). Quantification of histological measurements is based on images in several cortical subregions, striatum, […], hippocampus, and cerebellum.

[5] = acute and chronic administration of 1-2 g DSR in humans; cited from earlier work

N[C@H](CO)C(=O)O [D-serine]
Quality of life of the patient ([1]; during treatment with DSR): improved considerably
Reduction in reported symptoms and side effects (QLS) ([1]; end of the 6 week treatment period vs baseline): ~3 times
QLS Symptoms/side-effects ([1]; study week 2): 9.38
QLS Motivation/energy ([1]; study week 2): 42.86
QLS Psychosocial ([1]; study week 2 of adjuvant D-serine): 55
QLS Symptoms/side-effects ([1]; study week 4): 9.38
QLS Motivation/energy ([1]; study week 4): 42.86
QLS Psychosocial ([1]; study week 4 of adjuvant D-serine): 50
QLS Symptoms/side-effects ([1]; study week 6): 3.13
QLS Motivation/energy ([1]; study week 6): 42.86
QLS Psychosocial ([1]; study week 6 of adjuvant D-serine): 38.33
Motor symptomatology, as measured by AIMS and SAS scores ([2]; following DSR administration, minimal at baseline): improvements were registered
AIMS ([2]; study week 2): 0
AIMS ([2]; study week 4): 0
AIMS ([2]; study week 6): 0
Current latency of EDB over the right frontal area ([3]; following DSR treatment, t=2.686, df=113, p=0.0083, F8 channel): significant reduction
EEG extreme delta brush (EDB) pattern ([3]; post- vs pre-DSR administration (six weeks)): attenuation of the EDB pattern
EEG coherence between electrodes ([3]; post- vs pre-six weeks of D-serine, across all frequency bands): Distinct new patterns of EEG coherence
Effect on NMDAR intracellular localization [4]: reversing receptor intracellular localization
Increase in DSR serum levels [5]: ≥ 100 times
